Measurements from PubChem BioAssay (NCI).
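1) Cells in 96-well plates. 2) Compound, 48 h, 5 concentrations. 3) Linear interpolation between surrounding doses. 4) Unreached endpoint = highest concentration. The concentration for 50% growth inhibition is given as GI50. TGI: concentration producing complete growth inhibition.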

Key:
Assay in all cases: NCI anticancer screen, dose series, 48 h
EKVX NSCLC = system: EKVX NSCLC
OVCAR-8 ovarian = system: OVCAR-8 ovarian
OVCAR-3 ovarian = system: OVCAR-3 ovarian
SK-OV-3 ovarian = system: SK-OV-3 ovarian
ACHN renal = system: ACHN renal
UACC-257 melanoma = system: UACC-257 melanoma
KM12 colon = system: KM12 colon
HS 578T breast = system: HS 578T breast
MDA-MB-231 breast = system: MDA-MB-231 breast
NCI-H226 lung = system: NCI-H226 lung

| Structure (SMILES) | TGI (EKVX NSCLC) | TGI (OVCAR-8 ovarian) | TGI (OVCAR-3 ovarian) | TGI (SK-OV-3 ovarian) | TGI (ACHN renal) | TGI (UACC-257 melanoma) | TGI (KM12 colon) | GI50 (HS 578T breast) | TGI (HS 578T breast) | GI50 (OVCAR-8 ovarian) | GI50 (SK-OV-3 ovarian) | GI50 (ACHN renal) | GI50 (UACC-257 melanoma) | GI50 (KM12 colon) | GI50 (MDA-MB-231 breast) | TGI (MDA-MB-231 breast) | GI50 (EKVX NSCLC) | GI50 (OVCAR-3 ovarian) | GI50 (NCI-H226 lung) | TGI (NCI-H226 lung) |
| --- | --- | --- | --- | --- | --- | --- | --- | --- | --- | --- | --- | --- | --- | --- | --- | --- | --- | --- | --- | --- |
| O=S(O)CCCCSSCc1ccccc1CSSCCCCS(=O)O | > 100 µM | 89.5 µM | 25.2 µM | > 100 µM | 74 µM | 18.2 µM | 59.6 µM |  |  |  |  |  |  |  |  |  |  |  |  |  |
| CC(=O)Oc1ccccc1C(=O)N=C1[Se]CCN1C(=O)c1ccccc1OC(C)=O |  | 2.7 µM |  | 2.82 µM | 2.86 µM | 3.2 µM | > 100 µM | 0.507 µM | 3.02 µM | 0.637 µM | 1.05 µM | 1.4 µM | 1.02 µM | 1.1 µM | 0.472 µM | 3.06 µM |  |  |  |  |
| O=C(CCCN1CC=C(n2c(=O)[nH]c3ccccc32)CC1)c1ccc(F)cc1 | 80.1 µM | > 100 µM | > 100 µM | > 100 µM | > 100 µM | > 100 µM | > 100 µM | 24 µM | 99.8 µM | 32.9 µM | > 100 µM | 45.6 µM | 60.2 µM | 30.7 µM | 62.8 µM | > 100 µM | 16.7 µM | 31.4 µM | 25.5 µM | > 100 µM |
| O=C(/C=C/c1ccccc1)/C=C/c1ccccc1 |  |  | 51.3 µM | > 100 µM | 38.2 µM | 87 µM | 38.2 µM |  |  |  |  |  |  |  |  |  |  |  |  | > 100 µM |
| CSC1(CC(=O)N(C)C)C(=O)Nc2ccccc21 (stereo not drawn) | > 100 µM |  | > 100 µM | > 100 µM | > 100 µM | > 100 µM | > 100 µM |  | > 100 µM |  |  |  |  |  |  |  |  |  |  | > 100 µM |
| CCCCCCCCCc1cc(=O)c2c(O)cccc2o1 | > 100 µM | > 100 µM | > 100 µM | > 100 µM | > 100 µM | > 100 µM | > 100 µM |  |  |  |  |  |  |  |  |  |  |  |  | > 100 µM |
| CN(C)c1ccc2nc3ccc(=O)cc-3sc2c1 |  | > 100 µM | > 28.1 µM | > 100 µM | > 49.1 µM | 3.29 µM | > 78.7 µM | 7.12 µM | > 100 µM | 0.651 µM | 6.02 µM | 0.274 µM | 0.38 µM | 0.781 µM | 1.14 µM | > 45.4 µM |  | 0.598 µM | 7.59 µM | > 85.1 µM |
| CCOC(=O)[C@H](CCCNC(=O)OC(C)(C)C)NCc1ccc(OC)c(OC)c1 | > 100 µM | > 100 µM | > 100 µM | > 100 µM | > 100 µM | > 100 µM | > 100 µM |  |  |  |  |  |  |  |  |  |  |  |  | > 100 µM |
| O=c1[nH]c2cc(Cl)ccc2n1C1CCN(CCCC(c2ccc(F)cc2)c2ccc(F)cc2)CC1 | 3.38 µM | 3.56 µM | 3.27 µM | 3.72 µM | 2.87 µM | 3.04 µM | 3.27 µM |  |  | 1.69 µM | 1.82 µM | 1.54 µM | 1.56 µM | 1.68 µM | 1.68 µM | 3.12 µM | 1.45 µM | 1.81 µM | 1.87 µM | 3.53 µM |
| Cc1cn2c(/C=C3/C(=O)Nc4ccccc43)c(-c3ccc(Cl)cc3)nc2s1 | 18.8 µM | 23.6 µM | 17.9 µM |  | 8.52 µM | 27.8 µM | 23.2 µM | 9.26 µM | 31.9 µM | 10.2 µM |  | 2.48 µM | 10.5 µM | 10.5 µM | 2.34 µM | 9.45 µM | 8.73 µM | 9.82 µM | 7.04 µM | 21.3 µM |
| CCN(CC)CC(C)(C)C(=O)/C=C/c1ccc(Cl)c(Cl)c1 | 3.1 µM | 3.91 µM | 2.88 µM |  | 3.09 µM | 3.64 µM | 3.28 µM | 2.45 µM | 5.94 µM | 1.88 µM |  | 1.61 µM | 2.07 µM | 1.67 µM | 2.06 µM | 4.26 µM | 1.69 µM | 1.53 µM | 1.71 µM | 3.35 µM |
| O=C1CSC(Cc2nc3ccccc3[nH]2)=N1 | 75.6 µM | 74.9 µM | 31.6 µM | 51.3 µM | 9.79 µM | > 90.7 µM | > 64.1 µM |  |  |  |  |  |  |  |  |  |  |  |  | 28.3 µM |
| CCOC(=O)C1N(S(=O)(=O)c2ccc(C)cc2)CCC12C(c1ccc(OC)cc1)NC1CCCCC12 (stereo not drawn) | > 100 µM | > 100 µM | > 100 µM | > 100 µM | > 100 µM | > 100 µM | > 100 µM |  |  |  |  |  |  |  |  |  |  |  |  | > 100 µM |
| O=C(CCC(=O)Nc1cccc(Cl)c1)CC(=O)c1ccc(Cl)cc1 |  | > 100 µM | > 100 µM | > 100 µM | > 100 µM | > 100 µM | > 100 µM |  |  |  |  |  |  |  |  |  |  |  |  | > 100 µM |
| Cc1c(C2Nc3ccccc3C2C)[nH]c2ccccc12 (stereo not drawn) |  | 29.2 µM | 27.2 µM | 29.9 µM | 23.1 µM | 28.3 µM | 29.1 µM | 16.1 µM | 49.7 µM | 9.1 µM | 13.1 µM | 10.1 µM | 12.4 µM | 7.45 µM | 5.37 µM | 21.4 µM |  | 11.6 µM | 10.9 µM | 31.3 µM |
| O=C(Nc1ccc([N+](=O)[O-])cc1)C1C(=O)C(=O)N(c2ccc([N+](=O)[O-])cc2)C1=O (stereo not drawn) | > 100 µM | > 100 µM | > 100 µM | > 100 µM | > 100 µM | > 100 µM | > 100 µM |  |  |  |  |  |  |  |  |  |  |  |  | > 100 µM |
| Cc1ccc(N(CSc2ccc(Cl)cc2)CSc2ccc(Cl)cc2)cc1 | 26 µM | > 100 µM | 11.5 µM | 19.3 µM | 15.7 µM | > 100 µM | 12.5 µM |  |  | 1.55 µM | 3.29 µM | 2.11 µM | 3.72 µM | 0.51 µM | 0.404 µM | 2.5 µM | 0.542 µM | 2.75 µM | 1.09 µM | 2.45 µM |
| N#CC(/C(=N/NC(=O)C(=O)NN)C(=O)NC12CC3CC(CC(C3)C1)C2)c1ccccc1 (stereo not drawn) | > 100 µM | > 100 µM | > 100 µM | > 100 µM | > 100 µM | > 100 µM | > 100 µM |  |  |  |  |  |  |  |  |  |  |  |  | > 100 µM |
